In the case of COc1ccc(CNc2nc(-c3ccc(=O)n(C)n3)c(-c3ccccc3)nc2N)cc1 [Example 145, 6-[5-amino-6-[(4-methoxybenzyl)amino]-3-phenyl-2-pyrazinyl}-2-methyl-3(2H)-pyridazinone], the melting point is reported as greater than 250 °C.
Compound CC(C)n1nc(-c2nc(-n3ccnc3)c(N)nc2-c2ccccc2)ccc1=O [Example 150, 6-[5-amino-6-(1H-imidazol-1-yl)-3-phenyl-2-pyrazinyl]-2-isopropyl-3(2H)-pyridazinone] has a melting point greater than 250 °C.
In the case of CCn1nc(-c2nc(C#N)c(N)nc2-c2ccccc2)ccc1=O [Example 13, 3-Amino-6-(1-ethyl-6-oxo-1,6-dihydro-3-pyridazinyl)-5-phenyl-2-pyrazinecarbonitrile], the melting point is reported as greater than 250 °C.
For Cn1nc(-c2nc(NCc3ccccn3)c(N)nc2-c2ccccc2)ccc1=O [Example 146, 6-{5-amino-3-phenyl-6-[(2-pyridylmethyl)amino]-2-pyrazinyl}-2-methyl-3(2H)-pyridazinone], the melting point was greater than 250 °C.

COC(=O)c1nc(-c2ccc(=O)n(C(C)C)n2)c(-c2ccccc2)nc1OC [Example 24, Methyl 6-(1-isopropyl-6-oxo-1,6-dihydro-3-pyridazinyl)-3-methoxy-5-phenyl-2-pyrazinecarboxylate] and COc1nc(-c2ccccc2)c(-c2ccc(=O)n(C(C)C)n2)nc1C#N [Example 22, 6-(1-isopropyl-6-oxo-1,6-dihydro-3-pyridazinyl)-3-methoxy-5-phenyl-2-pyrazinecarbonitrile] cannot be ordered by melting point: 170 to 171 °C for the first, 170 to 172 °C for the second.

Compared with Cn1nc(-c2nc(NCCCc3ccccc3)c(N)nc2-c2ccccc2)ccc1=O [Example 126, 6-{5-amino-3-phenyl-6-[(3-phenylpropyl)amino]-2-pyrazinyl}-2-methyl-3(2H)-pyridazinone], Cn1nc(-c2nc(N3CCN(c4ccccc4)CC3)c(N)nc2-c2ccccc2)ccc1=O [Example 130, 6-[5-amino-3-phenyl-6-(4-phenyl-1-piperazinyl)-2-pyrazinyl]-2-methyl-3(2H)-pyridazinone] is lower in melting point: 196 to 197.5 °C for the first, 155 to 157 °C for the second.

First: Cn1nc(-c2nc([S+](C)[O-])c(N)nc2-c2ccccc2)ccc1=O (stereo not shown) [Example 62, 6-[5-amino-6-(methylsulfinyl)-3-phenyl-2-pyrazinyl]-2-methyl-3(2H)-pyridazinone]
Second: CC(C)n1nc(-c2nc(Br)c(N)nc2-c2ccccc2)ccc1=O [Example 53, 6-(5-amino-6-bromo-3-phenyl-2-pyrazinyl)-2-isopropyl-3(2H)-pyridazinone]
The melting point of the first is higher: 209 to 210.5 °C for the first, 204 to 206 °C for the second.

Compared with CC(C)n1nc(-c2nc(N)cnc2-c2ccccc2)ccc1=O [Example 50, 6-(6-amino-3-phenyl-2-pyrazinyl)-2-isopropyl-3(2H)-pyridazinone], CC(C)n1nc(-c2ncc(O)nc2-c2ccccc2)ccc1=O [Example 1, 6-(5-hydroxy-3-phenyl-2-pyrazinyl)-2-isopropyl-3(2H)-pyridazinone] is higher in melting point: 214 to 217 °C for the first, 225 to 227 °C for the second.

First: CC(C)n1nc(-c2nc(N3CCN4CCCC4C3)c(N)nc2-c2ccccc2)ccc1=O (stereo not shown) [Example 118, 6-[5-amino-6-(hexahydropyrrolo[1,2-a]pyrazin-2(1H)-yl)-3-phenyl-2-pyrazinyl]-2-isopropyl-3(2H)-pyridazinone]
Second: CC(C)n1nc(-c2nc(OCC(F)(F)F)c(N)nc2-c2ccccc2)ccc1=O [Example 171, 6-[5-amino-3-phenyl-6-(2,2,2-trifluoroethoxy)-2-pyrazinyl]-2-isopropyl-3(2H)-pyridazinone]
The melting point of the first is lower: 205 to 207.5 °C for the first, 233 to 235 °C for the second.

First: CCn1nc(-c2ncc(N)nc2-c2ccccc2)ccc1=O [Example 59, 6-(5-amino-3-phenyl-2-pyrazinyl)-2-ethyl-3(2H)-pyridazinone]
Second: COc1ccc(CNc2cnc(-c3ccc(=O)n(C(C)C)n3)c(-c3ccccc3)n2)cc1 [Example 49, 2-isopropyl-6-{5-[(4-methoxybenzyl)amino]-3-phenyl-2-pyrazinyl}-3(2H)-pyridazinone]
The melting point of the first is higher: 227 to 229 °C for the first, 138 to 140 °C for the second.
